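Compound exposure: 48 hours, 5 concentrations, 96-well plates. GI50 is the concentration that inhibits growth by half. TGI is the concentration that stops growth completely.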
Key:
Experiment in all cases: inhibition of tumour cell growth, NCI panel, 48 h
M14 melanoma = test system: M14 melanoma
CCRF-CEM leukemia = test system: CCRF-CEM leukemia
COLO 205 colon = test system: COLO 205 colon
NCI-H23 lung = test system: NCI-H23 lung
SW-620 colon = test system: SW-620 colon
HCC-2998 colon = test system: HCC-2998 colon
SK-MEL-5 melanoma = test system: SK-MEL-5 melanoma
SR leukemia = test system: SR leukemia

O=C(COc1cccc(/C=C2\CSc3ccc(Cl)cc3C2=O)c1)c1ccc(Cl)cc1
GI50 (M14 melanoma): 12.4 µM
TGI (M14 melanoma): 28.2 µM
GI50 (CCRF-CEM leukemia): 1.66 µM
TGI (CCRF-CEM leukemia): 4.22 µM
GI50 (COLO 205 colon): 5.32 µM
TGI (COLO 205 colon): 20.2 µM
GI50 (NCI-H23 lung): 12.9 µM
TGI (NCI-H23 lung): 42.5 µM
GI50 (SW-620 colon): 1.67 µM
TGI (SW-620 colon): 3.09 µM
GI50 (HCC-2998 colon): 10.7 µM
TGI (HCC-2998 colon): 22.6 µM
GI50 (SK-MEL-5 melanoma): 5.33 µM
TGI (SK-MEL-5 melanoma): 19.6 µM

COc1cc(CNCCN2C(=O)c3ccc4c5c(ccc(c35)C2=O)C(=O)N(CCNCc2cc(OC)c(OC)c(OC)c2)C4=O)cc(OC)c1OC
GI50 (SR leukemia): 0.0973 µM
TGI (SR leukemia): 0.311 µM
GI50 (M14 melanoma): 0.717 µM
TGI (M14 melanoma): 1.4 µM
GI50 (COLO 205 colon): 0.177 µM
TGI (COLO 205 colon): 0.673 µM
GI50 (NCI-H23 lung): 0.794 µM
TGI (NCI-H23 lung): 1.78 µM

COc1cc(/C=C/c2cc(/C=C/c3ccc(O)c(OC)c3)n(C(=O)Nc3ccccc3Cl)n2)ccc1O
GI50 (M14 melanoma): 0.283 µM
TGI (M14 melanoma): 1.19 µM
GI50 (CCRF-CEM leukemia): 0.216 µM
TGI (CCRF-CEM leukemia): 0.844 µM
GI50 (COLO 205 colon): 1.49 µM
TGI (COLO 205 colon): 2.91 µM
GI50 (NCI-H23 lung): 0.33 µM
TGI (NCI-H23 lung): 2.46 µM
GI50 (SW-620 colon): 0.389 µM
TGI (SW-620 colon): 1.69 µM
GI50 (HCC-2998 colon): 0.725 µM
TGI (HCC-2998 colon): 5.72 µM
GI50 (SK-MEL-5 melanoma): 0.299 µM
TGI (SK-MEL-5 melanoma): 1.22 µM

O=C(O)c1cc(=O)cc(C(=O)O)o1
GI50 (SR leukemia): > 100 µM
TGI (SR leukemia): > 100 µM
GI50 (CCRF-CEM leukemia): > 100 µM
TGI (CCRF-CEM leukemia): > 100 µM
GI50 (COLO 205 colon): > 100 µM
TGI (COLO 205 colon): > 100 µM
GI50 (NCI-H23 lung): > 100 µM
TGI (NCI-H23 lung): > 100 µM
GI50 (SW-620 colon): > 100 µM
TGI (SW-620 colon): > 100 µM
GI50 (HCC-2998 colon): > 100 µM
TGI (HCC-2998 colon): > 100 µM
GI50 (SK-MEL-5 melanoma): > 100 µM
TGI (SK-MEL-5 melanoma): > 100 µM

CCOC(=O)C1=C(C)NC(=O)NC1CN1C(=O)c2ccccc2C1=O (stereo not given)
GI50 (M14 melanoma): > 100 µM
TGI (M14 melanoma): > 100 µM
GI50 (CCRF-CEM leukemia): > 100 µM
TGI (CCRF-CEM leukemia): > 100 µM
GI50 (COLO 205 colon): > 100 µM
TGI (COLO 205 colon): > 100 µM
GI50 (NCI-H23 lung): > 100 µM
TGI (NCI-H23 lung): > 100 µM
GI50 (SW-620 colon): > 100 µM
TGI (SW-620 colon): > 100 µM
GI50 (HCC-2998 colon): > 100 µM
TGI (HCC-2998 colon): > 100 µM
GI50 (SK-MEL-5 melanoma): > 100 µM
TGI (SK-MEL-5 melanoma): > 100 µM

C=CC(=O)N1C[C@@H]2CCOc3c(Cl)c(-c4c(O)cccc4F)c(F)c4ncnc(c34)N2C[C@H]1C
GI50 (M14 melanoma): 12.5 µM
TGI (M14 melanoma): 27.7 µM
GI50 (CCRF-CEM leukemia): 11.5 µM
TGI (CCRF-CEM leukemia): > 100 µM
GI50 (COLO 205 colon): 17.6 µM
TGI (COLO 205 colon): 35.9 µM
GI50 (NCI-H23 lung): 0.0328 µM
TGI (NCI-H23 lung): 13.1 µM
GI50 (SW-620 colon): 13.9 µM
TGI (SW-620 colon): 33.1 µM
GI50 (HCC-2998 colon): 15.2 µM
TGI (HCC-2998 colon): 28.8 µM
GI50 (SK-MEL-5 melanoma): 13.1 µM
TGI (SK-MEL-5 melanoma): 25.9 µM

Oc1ccc2ccccc2c1N=Nc1cc(Cl)ccc1Cl
TGI (M14 melanoma): > 50 µM
TGI (CCRF-CEM leukemia): > 50 µM
TGI (COLO 205 colon): > 50 µM
TGI (NCI-H23 lung): > 50 µM
TGI (SW-620 colon): > 50 µM
TGI (SK-MEL-5 melanoma): > 50 µM

O=C(O)c1ccc(C(O)(c2ccccc2)c2ccccc2)cc1
TGI (SR leukemia): > 100 µM
TGI (M14 melanoma): > 100 µM
TGI (CCRF-CEM leukemia): > 100 µM
TGI (COLO 205 colon): > 100 µM
TGI (NCI-H23 lung): > 100 µM
TGI (SK-MEL-5 melanoma): > 100 µM

Source: PubChem BioAssay (NCI)
